Where a SMILES comes first, the peptide text is derived from it. [ ]: non-standard residue; d: D form. ξ: configuration not given here. pGlu = O=C1CC[C@@H](C(=O)O)N1; ξAze = O=C(O)C1CCN1
Columns and labels:
CUMS model mice [1] = test: Tail suspension test in CUMS model mice, intravenous administration; assay type: in vivo, C57/B6 mice; conditions: single i.v. dose 100 mg/kg, test 2 hours later (FIG. 4)
Description: (§1) 6-8-week-old C57/B6 mice (purchased from: Jinan Pengyue Laboratory Animal Breeding Co., Ltd.) were used to establish a 28-day chronic unpredictable mild stress (CUMS) animal model, and an experimental procedure referred to document description^[1,2]. After one week of acclimatization, seven experiments, including food and water deprivation, foot shock, wet bedding, cage tilting, restraint stress, shaker stress, and olfactory stimulation, were randomly applied to the animals within one week to achieve unpredictability, and the stimulation was continued for 4 consecutive weeks. The successful establishment of the model was verified by an open field test (OFT)^[3], and then pharmacodynamic evaluation was carried out. The animals were divided into a blank control group (Control), a model group (Model), a vehicle control group (Vehicle), a fluoxetine control group and a compound group in the experiment. The test compound was intravenously (i.v.) administered once at a dose of 100 mg/kg, a tail suspension test (TST) and a forced swimming test (FST)^[4,5] were carried out 2 hours later to evaluate the depression of the mice, and prolonged immobility time in the TST and the FST indicated behavioral despair of the mice. After summary statistics of data, SPSS data statistics software was used for analysis, and Graph Pad software was used for graph generation based on SPSS analysis results.

CUMS model mice [2] = test: Forced swimming test in CUMS model mice, intravenous administration; assay type: in vivo, C57/B6 mice; conditions: single i.v. dose 100 mg/kg, test 2 hours later (FIG. 3)
Description: as §1

[3] = Mouse pharmacokinetic detection; assay type: in vivo; conditions: CD1 mice; for AUC(0-t): oral gavage 10 mg/kg; for bioavailability: oral gavage 10 mg/kg vs intravenous 10 mg/kg
Protocol: The detection was carried out in 6-8-week-old CD1 mice (purchased from: Speifu (Beijing) Biotechnology Co., Ltd.). […] The concentration of the compound in a plasma sample was analyzed by LC-MS/MS. Pharmacokinetic calculation was carried out by using WinNonlin (Phoenix™, Version 8.3) or other similar software. The following pharmacokinetic parameters were calculated based on plasma concentration and time data: Oral administration: AUClast, bioavailability (F). Statistical calculation was carried out on the above parameter data. Table 3 Pharmacokinetic data of some compounds administered orally in mice

CUMS model mice [4] = test: Tail suspension test in CUMS model mice, oral administration; assay type: in vivo, C57/B6 mice; conditions: single oral dose 25 mg/kg, test 2 hours later (FIG. 1, FIG. 2)
Description: as §1, with “fluoxetine control group, ZZL-7 experimental group and” for “fluoxetine control group and”, “compound was orally administered once” for “compound was intravenously (i.v.) administered once”, “dose of 25 mg/kg, a” for “dose of 100 mg/kg, a”, “suspension test (TST)^[4,5] was carried out” for “suspension test (TST) and a forced swimming test (FST)^[4,5] were carried out”, “the TST indicated behavioral” for “the TST and the FST indicated behavioral”

[5] = Plasma stability determination; assay type: in vitro ADME; conditions: mouse
Protocol: Mouse plasma (purchased from IPHASE, Batch No. 23B007) was thawed in a 37°C water bath, centrifuged to remove an upper clot, and the pH value was recorded as 7-8. An appropriate volume of stock solution of test compound in acetonitrile (at a concentration of 10 mM) was diluted with acetonitrile to 1 mM, so as to serve as a test drug solution. An appropriate volume of test drug solution was added to a corresponding volume of plasma and mixed uniformly, such that the concentration of the test compound in the incubation system was 5 µM, and the content of the organic solvent acetonitrile was 0.5%. 50 µL of mixed plasma was transferred into a 96-well plate (N=2), incubated at 37°C in a water bath for a designated time, and then added with 300 µL of internal standard-containing methanol solution to terminate the reaction. The reaction mixture was vortexed and centrifuged, and the supernatant was subjected to LC-MS/MS analysis. Propantheline and ZZL-7 were used as positive controls, and processed and tested under the same conditions as the test compound. A curve was plotted with the remaining percentage of the compound against incubation time to obtain a k value, and the half-life of each compound was calculated.

[6] = Permeability detection in MDR1-MDCK II cell monolayer; assay type: in vitro ADME; conditions: dog, pH 7.4, MDR1-MDCK II cells, 2 µM, 2.5 hours; for Papp A→B at 2.5 h, 2 µM: apical to basolateral; for Papp B→A at 2.5 h, 2 µM: basolateral to apical
Protocol: (§2) MDR1-MDCK II cells (imported from the Netherlands Cancer Institute) were seeded in a 96-well cell plate at a density of 3.33×10^5 cells/mL, and cultured in a carbon dioxide incubator for 4-7 days to form a cell monolayer. A Hank's balanced salt solution (HBSS, pH 7.40 ± 0.05) containing 10.0 mM 4-(2-hydroxyethyl)-1-piperazineethanesulfonic acid (HEPES) was used as a transport buffer. A DMSO stock solution of compound was diluted to 2 µM (DMSO < 1.0%) with the transport buffer, and added to the basolateral (B) side and apical (A) side respectively (N=2). The bidirectional (A-B and B-A) incubation concentration of Digoxin, a P-gp substrate, was 10 µM, and the unidirectional (A-B) incubateion concentrations of Nadolol, a low-permeability control, and Metoprolol, a high-permeability control, were 2 µM. The cell plate was incubated in a 5% CO2 cell incubator at 37°C and saturated humidity for 2.5 hours, then final samples from a receiver side and a donor side were collected, added with the transport buffer and a precipitant at an appropriate ratio, and analyzed by LC-MS/MS, and an apparent permeability coefficient, an efflux ratio and a solution recovery were calculated.
(§3) After the transport experiment was completed, an integrity of the MDR1-MDCK II cell layer was detected by a lucifer yellow detection experiment. Residual solution in apical and basolateral wells was removed, and 75 µL of transport buffer containing 100 µM lucifer yellow was added to the apical wells and 250 µL of transport buffer was added to the basolateral wells respectively. The cell plate was incubated in a 5% CO2 cell incubator at 37 °C and saturated humidity for 30 minutes, then 20 µL of sample was taken from the apical side and mixed with 60 µL of transport buffer and 80 µL of sample was taken from the basolateral side. A relative fluorescence intensity was detected by a microplate reader at excitation/emission wavelengths of 425/528 nm, and the permeability of Lucifer Yellow was calculated.
(§4) The apparent permeability coefficient (Papp), efflux ratio (ER) and %solution recovery were respectively calculated by following formulas: Papp = (VR)/(Area × Time) × ([drug]receiver)/([drug]initial,donor) = (VR)/(Area × Time) × (CR)/(C0) [formula] Efflux Ratio = (Papp (B−A))/(Papp (A−B)) [formula] %Solution Recovery = (CR × VR + CD × VD)/(C0 × VD) × 100 [formula]
(§5) VR was the volume of solution in the receiver side (0.075 mL for the apical side and 0.25 mL for the basolateral side respectively), VD was the volume of solution in the donor side (0.075 mL for the apical side and 0.25 mL for the basolateral side respectively), CR was the peak area ratio of compound in the receiver side, CD was the peak area ratio of compound in the donor side, C0 was the initial peak area ratio of compound in the donor side, Area was the surface area (0.143 cm^2) of the cell monolayer, and Time was incubation time of 9000 seconds (150 minutes). Papp(B-A) and Papp(A-B) respectively referred to the apparent permeability coefficient from the basolateral side to the apical side and the apparent permeability coefficient from the apical side to the basolateral side.
(§6) The permeability of Lucifer Yellow(%Lucifer Yellow) was calculated by the following formula: %Lucifer Yellow = (VBasolateral × RFUBasolateral)/(VApical × RFUApical + VBasolateral × RFUBasolateral) × 100 [formula]
(§7) RFUApical and RFUBasolareral respectively referred to relative fluorescence intensities of lucifer yellow in the apical side and the basolateral side. VApical and VBasolateral respectively referred to loading volumes (0.075 mL and 0.25 mL respectively) in the apical side and the basolateral side. Table 2 Permeability data of some compounds

MDR1-MDCK II cells = test: as above; assay type: in vitro ADME; conditions: permeability rank
Protocol: as §2, §3, §4, §5, §6, §7

[7] = Rat pharmacokinetic detection; assay type: in vivo; conditions: plasma, male SD rats; for AUC(0-t): oral gavage 15 mg/kg; for bioavailability: oral gavage 15 mg/kg vs intravenous 10 mg/kg
Protocol: The detection was carried out in 6-8-week-old male SD rats (purchased from:SPF (Beijing) Biotechnology Co., Ltd.). A test compound was dissolved in a solution containing 10% DMSO, 15% Solutol HS and 75% (aqueous solution of 10% hydroxypropyl-β-cyclodextrin), and administered via intravenous injection (10 mg/kg) or oral gavage (15 mg/kg). A concentration of the compound in a plasma sample was analyzed by LC-MS/MS. Pharmacokinetic calculation was carried out by using WinNonlin (Phoenix™, Version 8.3). The following pharmacokinetic parameters were calculated based on plasma concentration and time data: Oral administration: AUClast, bioavailability (F). Statistical calculation was carried out on the above parameter data. Table 4 Pharmacokinetic data of some compounds administered orally in rats

| SMILES | immobility time in the tail suspension test (CUMS model mice [1]) | immobility time in the forced swimming test (CUMS model mice [2]) | AUC(0-t) ([3]; plasma) | bioavailability ([3]; plasma) | immobility time in the tail suspension test (CUMS model mice [4]) | half-life at 5 µM [5] | Papp A→B at 2.5 h, 2 µM [6] | Papp B→A at 2.5 h, 2 µM [6] | Rank Papp (MDR1-MDCK II cells) | AUC(0-t) [7] | bioavailability [7] | AUC(0-t) ([3]; in vivo) | bioavailability ([3]; in vivo) |
| --- | --- | --- | --- | --- | --- | --- | --- | --- | --- | --- | --- | --- | --- |
| COC(=O)[C@@H](NC(=O)c1cnc(C)[nH]1)C(C)C [A-1-1] | rapidly reverse the prolonged immobility time | rapidly reverse the prolonged immobility time | 629 ng·h/mL | 35.3% | – | – | – | – | – | – | – | – | – |
| CC(=O)N1CC[C@@H]1C(=O)N[C@H](c1ncco1)C(C)C [B-2-41] | – | – | 11600 ng·h/mL | 90% | rapidly reverse the prolonged immobility time | > 289 min | 4.07 ×10⁻⁶ cm/s | 5.61 ×10⁻⁶ cm/s | Moderate | – | – | – | – |
| C[C@H](NC(=O)[C@@H]1CCCN1)C(=O)O [D5-PA, reference compound] (H-Pro-Ala-OH) | – | – | 38 ng·h/mL | 3.8% | – | 52.6 min | 0.15 ×10⁻⁶ cm/s | 0.3 ×10⁻⁶ cm/s | Low | 11.5 ng·h/mL | 0.71% | – | – |
| COC(=O)[C@@H](NC(=O)c1ccc[nH]1)C(C)C [A-1-7] | rapidly reverse the prolonged immobility time | rapidly reverse the prolonged immobility time | – | – | – | – | – | – | – | – | – | 154 ng·h/mL | 27.3% |
| CC(C)C[C@H](NC(=O)[C@@H]1CCC(=O)N1)C(=O)O [D4-pEL, reference compound] ([pGlu]-Leu-OH) | – | – | 555 ng·h/mL | 7.7% | – | – | < 0.216 ×10⁻⁶ cm/s | 0.302 ×10⁻⁶ cm/s | Low | 98.6 ng·h/mL | 1.04% | – | – |
| [2H]C([2H])([2H])C(=O)N1CC[C@@H]1C(=O)N[C@H](c1ncco1)C(C)C [B-2-3] | – | – | 10900 ng·h/mL | 159% | rapidly reverse the prolonged immobility time | – | 2.42 ×10⁻⁶ cm/s | 3.22 ×10⁻⁶ cm/s | Moderate | 24300 ng·h/mL | 66% | – | – |
| COC(=O)[C@@H](NC(=O)C1CCN1C(C)=O)C(C)C (stereo partly drawn) [A-2-1] (Ac-[ξAze]-Val-OMe) | rapidly reverse the prolonged immobility time | rapidly reverse the prolonged immobility time | 3130 ng·h/mL | 156% | – | – | – | – | – | – | – | – | – |

Reference: patent EP4818189A1, “NITROGEN-CONTAINING HETEROCYCLIC COMPOUND, AND PREPARATION METHOD AND USE THEREFOR” (Chengdu Di'ao Pharmaceutical Group Co., Ltd., priority 2023, dated 2025)
